Assay results taken from ChEMBL document CHEMBL1126161, “3,4-Dihydroquinolin-2(1H)-ones as combined inhibitors of thromboxane A2 synthase and cAMP phosphodiesterase” (J Med Chem, 1992).

What was measured:
[1] = test system: Rattus norvegicus; experiment: (§1) Antihypertensive activity in conscious spontaneously hypertensive rat (SHR), percent change in heart rate (beats/min) after 1 hr at 3 mg/kg peroral dose; format: functional; conditions: route oral
[2] = test system: Rattus norvegicus; experiment: Antihypertensive activity in conscious spontaneously hypertensive rat (SHR), percent change in Systolic blood pressure (SBP) at 1 mg/kg peroral dose after 2 hr; format: functional; conditions: route oral
[3] = test system: Rattus norvegicus; experiment: Antihypertensive activity in conscious spontaneously hypertensive rat (SHR), percent change in heart rate (beats/min) after 12 hr at 3 mg/kg peroral dose; format: functional; conditions: route oral
[4] = test system: Mus musculus; experiment: Protection against mortality in pulmonary thromboembolism model in mice at 6 mg/kg; format: functional
[5] = test system: Rattus norvegicus; experiment: Antihypertensive activity in conscious spontaneously hypertensive rat (SHR), percent change in Systolic blood pressure (SBP) at 10 mg/kg peroral dose; format: functional; conditions: route oral
[6] = test system: Rattus norvegicus; experiment: (§2) Antihypertensive activity in conscious spontaneously hypertensive rat (SHR), percent change in Systolic blood pressure (SBP) at 0.3 mg/kg peroral dose after 8 hr; format: functional; conditions: route oral
[7] = test system: Rattus norvegicus; experiment: Antihypertensive activity in conscious spontaneously hypertensive rat (SHR), percent change in heart rate (beats/min) after 4 hr at 10 mg/kg peroral dose; format: functional; conditions: route oral
[8] = test system: Mus musculus; experiment: Protection against mortality in pulmonary thromboembolism model in mice at 12 mg/kg; format: functional
[9] = test system: Mus musculus; experiment: Protection against mortality in pulmonary thromboembolism model in mice at 9 mg/kg; format: functional
[10] = test system: Rattus norvegicus; experiment: (§3) Antihypertensive activity in conscious spontaneously hypertensive rat (SHR), percent change in Systolic blood pressure (SBP) at 3 mg/kg peroral dose after 2 hr; format: functional; conditions: route oral
[11] = test system: Rattus norvegicus; experiment: Antihypertensive activity in conscious spontaneously hypertensive rat (SHR), percent change in Systolic blood pressure (SBP) at 10 mg/kg peroral dose after 1 hr; format: functional; conditions: route oral
[12] = test system: Rattus norvegicus; experiment: Antihypertensive activity in conscious spontaneously hypertensive rat (SHR), percent change in Systolic blood pressure (SBP) at 0.3 mg/kg peroral dose after 1 hr; format: functional; conditions: route oral
[13] = organism: Homo sapiens; experiment: Ratio of IC50(PDE)/IC50(TXA2); format: functional
[14] = organism: Homo sapiens; experiment: Ratio of IC50(w/oPAM)/IC50(w/PAM); format: functional
[15] = test system: Rattus norvegicus; experiment: Antihypertensive activity in conscious spontaneously hypertensive rat (SHR), percent change in heart rate (beats/min) after 8 hr at 3 mg/kg peroral dose; format: functional; conditions: route oral
[16] = test system: Rattus norvegicus; experiment: as §1; format: functional; conditions: route oral; remark: listed apart in the source
[17] = test system: Rattus norvegicus; experiment: Antihypertensive activity in conscious spontaneously hypertensive rat (SHR), percent change in heart rate (beats/min) after 12 hr at 0.3 mg/kg peroral dose; format: functional; conditions: route oral
[18] = test system: Rattus norvegicus; experiment: as §2; format: functional; conditions: route oral; remark: listed apart in the source
[19] = test system: Mus musculus; experiment: Time course of protection against mortality in a pulmonary thromboembolism model in mice after -3 hr at 10 mg/kg; format: functional
[20] = test system: Mus musculus; experiment: Protection against mortality in pulmonary thromboembolism model in mice at 30 mg/kg; format: functional
[21] = test system: Mus musculus; experiment: Time course of protection against mortality in a pulmonary thromboembolism model in mice after -5 hr at 10 mg/kg; format: functional
[22] = organism: Homo sapiens; experiment: Inhibition of [14C]arachidonic acid induced platelet aggregation at 500 uM (Control 6-keto-PGF1-alpha = 1.45+/-0.6); format: functional
[23] = test system: Mus musculus; experiment: Protection against mortality in pulmonary thromboembolism model in mice at 10 mg/kg; format: functional
[24] = test system: Rattus norvegicus; experiment: Antihypertensive activity in conscious spontaneously hypertensive rat (SHR), percent change in Systolic blood pressure (SBP) at 0.3 mg/kg peroral dose after 12 hr; format: functional; conditions: route oral
[25] = test system: Rattus norvegicus; experiment: Antihypertensive activity in conscious spontaneously hypertensive rat (SHR), percent change in Systolic blood pressure (SBP) at 1 mg/kg peroral dose after 1 hr; format: functional; conditions: route oral
[26] = organism: Homo sapiens; experiment: Inhibition of [14C]arachidonic acid induced platelet aggregation at 50 uM (Control TXB2 = 14.9+/-2.5); format: functional
[27] = test system: Rattus norvegicus; experiment: Antihypertensive activity in conscious spontaneously hypertensive rat (SHR), percent change in heart rate (beats/min) after 1 hr at 0.3 mg/kg peroral dose; format: functional; conditions: route oral
[28] = test system: Rattus norvegicus; experiment: as §3; format: functional; conditions: route oral; remark: listed apart in the source
[29] = organism: Homo sapiens; experiment: In vitro inhibition of ADP-induced aggregation of human PRP in the presence of pig aortal microsomes (PAM).; format: functional
[30] = target: T1, Thromboxane-A synthase (Homo sapiens, UniProt P24557); experiment: Compound was evaluated for the inhibition of human blood platelet thromboxane A2 synthase
T1 sequence (P24557 whole entry): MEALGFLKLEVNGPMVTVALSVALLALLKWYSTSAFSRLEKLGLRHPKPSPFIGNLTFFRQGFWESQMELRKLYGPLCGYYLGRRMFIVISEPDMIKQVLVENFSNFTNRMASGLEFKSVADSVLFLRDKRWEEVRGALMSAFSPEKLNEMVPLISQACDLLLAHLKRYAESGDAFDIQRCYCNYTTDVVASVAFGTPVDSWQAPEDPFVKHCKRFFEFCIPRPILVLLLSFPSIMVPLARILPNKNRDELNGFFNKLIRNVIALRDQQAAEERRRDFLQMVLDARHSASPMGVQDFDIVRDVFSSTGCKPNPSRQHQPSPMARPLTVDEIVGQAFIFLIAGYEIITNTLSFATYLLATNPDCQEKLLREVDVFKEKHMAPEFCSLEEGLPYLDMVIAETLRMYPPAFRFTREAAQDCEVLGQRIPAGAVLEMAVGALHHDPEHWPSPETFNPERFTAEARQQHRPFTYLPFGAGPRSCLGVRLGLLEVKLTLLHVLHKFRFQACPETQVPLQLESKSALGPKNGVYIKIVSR

[31] = test system: Rattus norvegicus; experiment: Antihypertensive activity in conscious spontaneously hypertensive rat (SHR), percent change in heart rate (beats/min) after 2 hr at 10 mg/kg peroral dose; format: functional; conditions: route oral
[32] = target: Phosphodiesterase 3 (Homo sapiens, UniProt Q14432+Q13370); experiment: Inhibition of human blood platelet c-AMP phosphodiesterase
[33] = test system: Rattus norvegicus; experiment: Antihypertensive activity in conscious spontaneously hypertensive rat (SHR), percent change in heart rate (beats/min) after 4 hr at 1 mg/kg peroral dose; format: functional; conditions: route oral
[34] = test system: Rattus norvegicus; experiment: Antihypertensive activity in conscious spontaneously hypertensive rat (SHR), percent change in heart rate (beats/min) after 4 hr at 3 mg/kg peroral dose; format: functional; conditions: route oral
[35] = test system: Rattus norvegicus; experiment: Antihypertensive activity in conscious spontaneously hypertensive rat (SHR), percent change in Systolic blood pressure (SBP) at 0.3 mg/kg peroral dose after 4 hr; format: functional; conditions: route oral
[36] = test system: Rattus norvegicus; experiment: Antihypertensive activity in conscious spontaneously hypertensive rat (SHR), percent change in Systolic blood pressure (SBP) at 1 mg/kg peroral dose after 12 hr; format: functional; conditions: route oral
[37] = target: T2, Thromboxane-A synthase (Homo sapiens) (UniProt P24557); experiment: Effect of TXA2 synthase inhibitor (compound) on serum TXB2 level in rats at 50 mg/kg po, after 2 hr; format: functional, organism-based; design: dose 50 mg/kg; conditions: Rattus norvegicus, target entry is the homologue from another species
T2 sequence (whole entry): T1 sequence (P24557 whole entry)

[38] = test system: Rattus norvegicus; experiment: Ex vivo inhibition of blood platelet aggregation in rats at 50 mg/kg peroral dose 8 hr; format: functional; conditions: route oral
[39] = test system: Rattus norvegicus; experiment: Antihypertensive activity in conscious spontaneously hypertensive rat (SHR), percent change in heart rate (beats/min) after 2 hr at 3 mg/kg peroral dose; format: functional; conditions: route oral
[40] = test system: Rattus norvegicus; experiment: Antihypertensive activity in conscious spontaneously hypertensive rat (SHR), percent change in Systolic blood pressure (SBP) at 3 mg/kg peroral dose after 8 hr; format: functional; conditions: route oral

Question: Which “Change in heart rate” value [1] does the source give for `O=C1CCc2cc(/C=C/n3ccnc3)ccc2N1` here?
Answer: The value was -34%.

Question: And the “Change in systolic BP” value [2]?
Answer: Its value is -8%.

Question: And the “Change in heart rate” value [3]?
Answer: The value was 8%.

Question: And the survival at 6 mg/kg [4]?
Answer: Its survival at 6 mg/kg is 50%.

Question: And the “Change in systolic BP” value [5]?
Answer: Its value is -35%.

Question: And the “Change in systolic BP” value [6]?
Answer: Its value is -54%.

Question: And the “Change in heart rate” value [7]?
Answer: Its value is 25%.

Question: And the survival at 12 mg/kg [8]?
Answer: The survival at 12 mg/kg was 70%.

Question: What about the survival at 9 mg/kg [9] of the same compound?
Answer: Its survival at 9 mg/kg is 50%.

Question: And the “Change in systolic BP” value [10]?
Answer: The value was -40%.

Question: What about the “Change in systolic BP” value [11] of the same compound?
Answer: Its value is -56%.

Question: What about the “Change in systolic BP” value [12] of the same compound?
Answer: Its value is -5%.

Question: And the Ratio [13]?
Answer: The Ratio was 5.3.

Question: And the Ratio [14]?
Answer: The Ratio was 4.7.

Question: And the “Change in heart rate” value [15]?
Answer: The value was 21%.

Question: What about the “Change in heart rate” value [16] of the same compound?
Answer: Its value is 28%.

Question: And the “Change in heart rate” value [17]?
Answer: The value was -8%.

Question: And the “Change in systolic BP” value [18]?
Answer: Its value is -5%.

Question: What about the survival at 10 mg/kg [19] of the same compound?
Answer: Its survival at 10 mg/kg is 20%.

Question: What about the survival at 30 mg/kg [20] of the same compound?
Answer: Its survival at 30 mg/kg is 20%.

Question: And the survival at 10 mg/kg [21]?
Answer: Its survival at 10 mg/kg is 60%.

Question: And the inhibition at 500 µM [22]?
Answer: Its inhibition at 500 µM is 21.1%.

Question: What about the survival at 10 mg/kg [23] of the same compound?
Answer: The survival at 10 mg/kg was 90%.

Question: And the “Change in systolic BP” value [24]?
Answer: The value was 1%.

Question: What about the “Change in systolic BP” value [25] of the same compound?
Answer: The value was -19%.

Question: What about the inhibition at 50 µM [26] of the same compound?
Answer: Its inhibition at 50 µM is 8%.

Question: What about the “Change in heart rate” value [27] of the same compound?
Answer: Its value is 3%.

Question: And the “Change in systolic BP” value [28]?
Answer: The value was -21%.

Question: And the IC50 [29]?
Answer: Its IC50 is 1.2 µM.

Question: And the IC50 [30]?
Answer: Its IC50 is 1.2 µM.

Question: And the “Change in heart rate” value [31]?
Answer: The value was 19%.

Question: And the IC50 [32]?
Answer: The IC50 was 6.4 µM.

Question: What about the “Change in heart rate” value [33] of the same compound?
Answer: Its value is 7%.

Question: And the “Change in heart rate” value [34]?
Answer: The value was 20%.

Question: What about the “Change in systolic BP” value [35] of the same compound?
Answer: Its value is -1%.

Question: And the “Change in systolic BP” value [36]?
Answer: The value was -3%.

Question: What about the inhibition [37] of the same compound?
Answer: Its inhibition is 97%.

Question: And the inhibition in vivo at 50 mg/kg [38]?
Answer: The inhibition in vivo at 50 mg/kg was 96.5%.

Question: What about the “Change in heart rate” value [39] of the same compound?
Answer: Its value is 10%.

Question: And the “Change in systolic BP” value [40]?
Answer: The value was -18%.
